The text below walks through data of patent US8536332B2, “Modulating signal transduction pathways with substituted pyridol [2,3-b] pyrazines” (Aeterna Zentaris GmbH, priority 2007, dated 2013).

SMILES strings stand for the structures.

As usually defined, the melting point is the temperature, or range, at which the solid turns liquid.

Turning to `CCNC(=O)Nc1ccc2ncc(-c3cc(C)c(C)c(C)c3)nc2n1` [Compound 151, 1-Ethyl-3-[3-(3,4,5-trimethyl-phenyl)-pyrido[2,3-b]pyrazin-6-yl]-urea], the melting point lay in the range of 228 to 233 °C. The same measure for `CCNC(=O)Nc1ccc2ncc(-c3cccc(C#N)c3)nc2n1` [Compound 114, 1-[3-(3-Cyano-phenyl)-pyrido[2,3-b]pyrazin-6-yl]-3-ethyl-urea]: 253 to 257 °C. The same measure for `CCNC(=O)Nc1cnc2ccc(-c3ccc(OC(F)(F)F)c(F)c3)nc2n1` [Compound 640, 1-Ethyl-3-[6-(3-fluoro-4-trifluoromethoxy-phenyl)-pyrido[2,3-b]pyrazin-3-yl]-urea]: 262 °C; for `COc1cc(-c2ccc3ncc(NC(=O)Nc4ccc(N5C(=O)C=CC5=O)cc4)nc3n2)ccc1O` [Compound 622, 1-[4-(2,5-Dioxo-2,5-dihydro-pyrrol-1-yl)-phenyl]-3-[6-(4-hydroxy-3-methoxy-phenyl)-pyrido[2,3-b]pyrazin-3-yl]-urea]: 290 to 293 °C. In the case of `CCNC(=O)Nc1ccc2ncc(Nc3cccc(N(C)C)c3)nc2n1` [Compound 374, 1-[3-(3-Dimethylamino-phenylamino)-pyrido[2,3-b]pyrazin-6-yl]-3-ethyl-urea] it was 215 °C; in that of `Cc1cc(-c2ccc3ncc(NC(=O)NC4CCN(C(=O)C(F)(F)F)CC4)nc3n2)cc(C)c1O` [Compound 589], 251 to 253 °C. `CCNC(=O)Nc1cnc2ccc(NCc3ccccc3)nc2n1` [Compound 239, 1-(6-Benzylamino-pyrido[2,3-b]pyrazin-3-yl)-3-ethyl-urea] came in with a melting point of 211 to 213 °C. The same measure for `CCNC(=O)Nc1ccc2ncc(-c3ccc(NC(=O)CCC(=O)OC)cc3)nc2n1` [Compound 76, N-{4-[6-(3-Ethyl-ureido)-pyrido[2,3-b]pyrazin-3-yl]-phenyl}-succinamic acid methyl ester]: 253 °C. Regarding `CCNC(=O)Nc1ccc2ncc(-c3cc(F)c(F)c(F)c3)nc2n1` [Compound 81, 1-Ethyl-3-[3-(3,4,5-trifluoro-phenyl)-pyrido[2,3-b]pyrazin-6-yl]-urea], the melting point lay in the range of 305.4 to 307.2 °C. In the case of `CCNC(=O)Nc1ccc2ncc(-c3ccsc3)nc2n1` [Compound 141, 1-Ethyl-3-(3-thiophen-3-yl-pyrido[2,3-b]pyrazin-6-yl)-urea] it was 250 °C; in that of `C=CCNC(=S)Nc1ccc2ncc(Nc3cc(OC)c(OC)c(OC)c3)nc2n1` [Compound 693, 1-Allyl-3-[3-(3,4,5-trimethoxy-phenylamino)-pyrido[2,3-b]pyrazin-6-yl]-thiourea], 230 to 234 °C; in that of `CCNC(=O)Nc1cnc2ccc(-c3ccc(C(C)=O)s3)nc2n1` [Compound 183, 1-[6-(5-Acetyl-thiophen-2-yl)-pyrido[2,3-b]pyrazin-3-yl]-3-ethyl-urea], over 250 °C. The same measure for `CCNC(=O)Nc1ccc2ncc(-c3cnc(N)nc3)nc2n1` [Compound 72, 1-[3-(2-Amino-pyrimidin-5-yl)-pyrido[2,3-b]pyrazin-6-yl]-3-ethyl-urea]: over 300 °C. In the case of `CCNC(=O)Nc1ccc2ncc(-c3cccc([N+](=O)[O-])c3)nc2n1` [Compound 101, 1-Ethyl-3-[3-(3-nitro-phenyl)-pyrido[2,3-b]pyrazin-6-yl]-urea] it was 249 to 253 °C; in that of `CCNC(=O)Nc1ccc2ncc(-c3cccc(Cl)c3)nc2n1` [Compound 111, 1-[3-(3-Chloro-phenyl)-pyrido[2,3-b]pyrazin-6-yl]-3-ethyl-urea], 262 to 264 °C; in that of `CCNC(=O)Nc1ccc2ncc(-c3ccc(C(=O)OC)cc3)nc2n1` [Compound 132, 4-[6-(3-Ethyl-ureido)-pyrido[2,3-b]pyrazin-3-yl]-benzoic acid methyl ester], 260 °C. Compound `CCNC(=O)Nc1ccc2ncc(-c3cnn(CC(C)C)c3)nc2n1` [Compound 59, 1-Ethyl-3-[3-(1-isobutyl-1H-pyrazol-4-yl)-pyrido[2,3-b]pyrazin-6-yl]-urea] displayed a melting point of 189 to 191 °C. `CCNC(=O)Nc1cnc2ccc(Nc3cc(Cl)c(O)c(Cl)c3)nc2n1` [Compound 15, 1-[6-(3,5-Dichloro-4-hydroxy-phenylamino)-pyrido[2,3-b]pyrazin-3-yl]-3-ethyl-urea] registered a melting point of 272 °C.

Turning to `CCNC(=O)Nc1ccc2ncc(-c3cccc(OCC)c3)nc2n1` [Compound 130, 1-[3-(3-Ethoxy-phenyl)-pyrido[2,3-b]pyrazin-6-yl]-3-ethyl-urea], the melting point lay within 220 to 223 °C. The same measure for `CCNC(=O)Nc1ccc2ncc(-c3ccc(F)c(F)c3)nc2n1` [Compound 95, 1-[3-(3,4-Difluoro-phenyl)-pyrido[2,3-b]pyrazin-6-yl]-3-ethyl-urea]: 259 to 262 °C; for `COc1cc(-c2ccc3ncc(NC(=O)NC4CCCCC4)nc3n2)ccc1O` [Compound 17, 1-Cyclohexyl-3-[6-(4-hydroxy-3-methoxy-phenyl)-pyrido[2,3-b]pyrazin-3-yl]-urea]: 232 to 235 °C; for `CCNC(=O)Nc1ccc2ncc(-c3cccc(OC(F)(F)F)c3)nc2n1` [Compound 118, 1-Ethyl-3-[3-(3-trifluoromethoxy-phenyl)-pyrido[2,3-b]pyrazin-6-yl]-urea]: 239 to 240 °C.

Regarding `CCNC(=O)Nc1cnc2ccc(Nc3ccc(C)cc3)nc2n1` [Compound 1, 1-Ethyl-3-(6-p-tolylamino-pyrido[2,3-b]pyrazin-3-yl)-urea], the melting point came out at 235 °C. The same measure for `CCNC(=S)Nc1cnc2ccc(Nc3ccc(O)c(OC)c3)nc2n1` [Compound 203, 1-Ethyl-3-[6-(4-hydroxy-3-methoxy-phenylamino)-pyrido[2,3-b]pyrazin-3-yl]-thiourea]: 166 °C; for `CCNC(=O)Nc1cnc2ccc(-c3cnn(C)c3)nc2n1` [Compound 10, 1-Ethyl-3-[6-(1-methyl-1H-pyrazol-4-yl)-pyrido[2,3-b]pyrazin-3-yl]urea]: 211 °C; for `CCNC(=O)Nc1cnc2ccc(-c3ccc(OC)cc3)nc2n1` [Compound 11, 1-Ethyl-3-[6-(4-methoxy-phenyl)-pyrido[2,3-b]pyrazin-3-yl]-urea]: 244 °C. `CCNC(=O)Nc1ccc2ncc(-c3cc(F)ccc3OC)nc2n1` [Compound 93, 1-Ethyl-3-[3-(5-fluoro-2-methoxy-phenyl)-pyrido[2,3-b]pyrazin-6-yl]-urea] displayed a melting point of 253 to 258 °C.

`CCNC(=O)Nc1ccc2ncc(-c3ccc([N+](=O)[O-])cc3)nc2n1` [Compound 131, 1-Ethyl-3-[3-(4-nitro-phenyl)-pyrido[2,3-b]pyrazin-6-yl]-urea] yielded a melting point of over 350 °C. The same measure for `CCN(CC)C(=O)Nc1cnc2ccc(-c3ccc(O)c(OC)c3)nc2n1` [Compound 632, 1,1-Diethyl-3-[6-(4-hydroxy-3-methoxy-phenyl)-pyrido[2,3-b]pyrazin-3-yl]-urea]: 214 to 216 °C; for `CCNC(=O)Nc1ccc2ncc(Nc3cc(C(C)(C)C)ccc3O)nc2n1` [Compound 336, 1-[3-(5-tert-Butyl-2-hydroxy-phenylamino)-pyrido[2,3-b]pyrazin-6-yl]-3-ethyl-urea]: 255 °C.
